In brackets after ≈: the same amount, converted by molar mass.
What was measured:
[1] = biological target: cGMP-specific 3',5'-cyclic phosphodiesterase (Bos taurus, UniProt Q28156); assay: Inhibition of bovine PDE5 after 24 hrs by HTRF
[2] = Aqueous solubility in PBS at pH 7.4; format: physicochemical

`O=C1[C@H]2Cc3c([nH]c4ccccc34)[C@@H](c3ccc4c(c3)OCO4)N2C(=O)CN1c1cccs1` showed an IC50 [1] of 57 nM.
Work on `CN1CC(=O)N2[C@H](c3ccc4c(c3)OCO4)c3[nH]c4ccccc4c3C[C@@H]2C1=O` yielded a solubility [2] of 9.7 µM (≈ 3.78 µg/mL).
`O=C1[C@H]2Cc3c([nH]c4ccccc34)[C@@H](c3ccc4c(c3)OCO4)N2C(=O)CN1c1ccc(Cl)cc1` showed an IC50 [1] of 134 nM.
`O=C1[C@H]2Cc3c([nH]c4ccccc34)[C@@H](c3ccc4c(c3)OCO4)N2C(=O)CN1c1ccsc1` gave an IC50 [1] of 18 nM.
For `O=C1[C@H]2Cc3c([nH]c4ccccc34)[C@@H](c3ccc4c(c3)OCO4)N2C(=O)CN1c1ccccc1`, the solubility [2] was 2.4 µM (≈ 1.08 µg/mL) and the IC50 [1] was 91 nM.
Molecule `O=C1[C@H]2Cc3c([nH]c4ccccc34)[C@@H](c3ccc4c(c3)OCO4)N2C(=O)CN1c1cccnc1` has a solubility [2] of 33 µM (≈ 14.9 µg/mL) and an IC50 [1] of 28 nM.
In the case of `Cc1cccc(N2CC(=O)N3[C@H](c4ccc5c(c4)OCO5)c4[nH]c5ccccc5c4C[C@@H]3C2=O)c1`, the IC50 [1] is reported as 68 nM.
Molecule `O=C1[C@H]2Cc3c([nH]c4ccccc34)[C@@H](c3ccc4c(c3)OCO4)N2C(=O)CN1c1ccc([N+](=O)[O-])cc1` has an IC50 [1] of 122 nM.
Molecule `O=C1[C@H]2Cc3c([nH]c4ccccc34)[C@@H](c3ccc4c(c3)OCO4)N2C(=O)CN1c1ccc(C(F)(F)F)cc1` has an IC50 [1] of 377 nM.
In the case of `COc1ccc(N2CC(=O)N3[C@H](c4ccc5c(c4)OCO5)c4[nH]c5ccccc5c4C[C@@H]3C2=O)cc1`, the IC50 [1] is reported as 16 nM.
For `O=C1[C@H]2Cc3c([nH]c4ccccc34)[C@@H](c3ccc4c(c3)OCO4)N2C(=O)CN1c1cccc(Cl)c1`, the IC50 [1] was 141 nM.
Molecule `CCCCc1ccc(N2CC(=O)N3[C@H](c4ccc5c(c4)OCO5)c4[nH]c5ccccc5c4C[C@@H]3C2=O)cc1` has an IC50 [1] of 152 nM.
Molecule `O=C1[C@H]2Cc3c([nH]c4ccccc34)[C@@H](c3ccc4c(c3)OCO4)N2C(=O)CN1c1cncnc1` has a solubility [2] of 25 µM (≈ 11.3 µg/mL) and an IC50 [1] of 53 nM.
